In a melting point compilation (Tetko et al.; mined from patent text by program, amines drawn as free bases though some values may be those of a salt):

Compared with `Nc1nc2ccccc2c2c1ncn2CC1(O)CCCCC1`, `CCn1ncc2c(NCC3CCCCC3)c3ccccc3nc21` is lower in melting point: > 250 °C for the first, 161 to 163 °C for the second.

First: Cc1c(C#N)ncn1-c1cccc(Oc2ccccc2)c1
Second: Oc1c(Cc2ccccc2)ccc2[nH]ccc12
The melting point of the first is lower: 97 to 98 °C for the first, 104 to 106 °C for the second.

First: CC(O)c1ccc(CCOc2ccc(CC3SC(=O)NC3=O)cc2)nc1 (stereo not drawn)
Second: CC(C)(C)OC(=O)NC(Cc1ccc(OCc2ccccc2)cn1)C(=O)NCc1ccc(C(=O)NO)cc1 (stereo not drawn)
The melting point of the first is higher: 155 to 156 °C for the first, 106 to 108 °C for the second.

Compared with `COc1cc(Oc2cccc(C(F)(F)F)c2)nc(C(=O)NN=C(C)C)c1`, `COc1cc(N2C(=O)c3ccccc3C2=O)c2nc(Cl)cc(C)c2c1Oc1cccc(C(F)(F)F)c1` is higher in melting point: 134 to 136 °C for the first, 225 to 227 °C for the second.

Compared with `Cc1nc2c(C(F)(F)F)cccc2c(-c2ccccc2)c1C(=O)c1ccccc1`, `Cc1nc(NC(=O)c2cccc(C(F)(F)F)c2)sc1C(=O)NCc1ccccc1` is higher in melting point: 175 to 177 °C for the first, 195 to 196 °C for the second.

First: Nc1cccc(C(=O)c2cc3c(Oc4ccc(Cl)cc4)cncc3s2)c1
Second: CS(=O)(=O)c1ccc(-n2cc(-c3cccc(Cl)c3)nc2-c2ccc(Cl)cc2)cc1
The melting point of the first is higher: 174 to 178 °C for the first, 156 to 159 °C for the second.

Compared with `Cc1ncc(C#N)c(Nc2ccc3[nH]ccc3c2C)c1-c1cc2cc(C=O)ccc2o1`, `N#Cc1cnc2sc(-c3ccc(CN)cc3)cc2c1Nc1ccc2[nH]ccc2c1` is higher in melting point: 168 to 169 °C for the first, > 260 °C for the second.

First: Cn1cc(SC(C)(C)C)c(=O)c(-c2ccc(Cl)c(C(F)(F)F)c2)c1
Second: Cn1cc(S(C)=O)c(=O)c2sc(-c3cccc(Cl)c3)cc21 (stereo not drawn)
The melting point of the first is lower: 138 to 142 °C for the first, 249 to 251 °C for the second.

Compared with `CCCCN(CCCC)c1ccc(C=Cc2ccc(C=CC3=C(C#N)C(=C(C#N)C#N)OC3(C)C(F)(F)F)cc2)c(OC)c1` (stereo not drawn), `CCCCCCCCC(Cc1cccnc1)(C(=O)NO)S(=O)(=O)c1ccc(OC)cc1` (stereo not drawn) is lower in melting point: 175 to 177 °C for the first, 62 °C for the second.

Compared with `N#Cc1c(-c2ccc(F)cc2)cc2c3c1ccn3C(=O)CNC2`, `O=C1C(=O)c2ccccc2C2=C1SCC1(CCN(CC(O)COc3ccc(F)cc3)CC1)O2` (stereo not drawn) is lower in melting point: 248 to 250 °C for the first, 174 to 175 °C for the second.

Compared with `COCc1cnc2c(NC(=O)c3c(Cl)cccc3Cl)ccc(C)c2c1-n1ccnc1`, `CCC(C)C(C)C(=O)Nc1ccc2c(C)cn3c(=O)c(C(=O)OCCNC(=O)c4cccnc4)cnc3c2c1` (stereo not drawn) is higher in melting point: 179 to 180 °C for the first, 204 to 210 °C for the second.

Going from `CCc1c(Cl)c2ccccn2c1C(=O)c1ccc(O)c(Br)c1` to `COc1cc(C(=O)c2nc(Br)c3ccccn23)ccc1[N+](=O)[O-]`, the melting point falls from 204 °C to 189 °C.

First: COc1cc2cc3c(Nc4ccc(Sc5nccn5C)c(Cl)c4)c(C#N)cnc3cc2cc1OCCCl
Second: O=C(Nc1ccc(CNc2nc(Cl)nc3cc(I)ccc23)cc1)c1ccc(Cl)nc1
The melting point of the first is lower: 275 to 280 °C for the first, 315 °C for the second.

First: CCCNC(=O)C1CC(=O)N(c2cc(C(F)(F)F)cc(C(F)(F)F)c2)C1 (stereo not drawn)
Second: O=S(=O)(c1c(-c2ccc(Cl)cc2)[nH]c(SC(F)(F)F)c1Br)C(F)(F)F
The melting point of the first is higher: 152 to 154 °C for the first, 122 to 125 °C for the second.

First: CC1=C(CCO)c2cc(F)ccc2C1
Second: CCc1nnc2c(Cl)nc3cc(F)ccc3n12
The melting point of the first is lower: 65 to 66.5 °C for the first, 203 to 205 °C for the second.

First: Cc1c(CNc2cccc(N)n2)c(C)c(CNc2cccc(N)n2)c(C)c1CNc1cccc(N)n1
Second: Cc1cc(-c2ccc(C(F)(F)F)c(C)c2)cc(-c2cccc(-c3cccc(S(N)(=O)=O)c3)n2)n1
The melting point of the first is lower: 130 to 132 °C for the first, > 250 °C for the second.

First: Oc1ccc(-n2cnc3cc(O)cc(O)c3c2=S)cc1
Second: NC(=O)CCn1c(-c2ccc(Cl)cc2)nc2cccnc21
The melting point of the first is higher: 299 to 302 °C for the first, 248 to 250 °C for the second.

Compared with `CN(C)Cc1nc(C=Cc2nc3ccc(F)cc3c(=O)n2-c2ccccc2F)cs1`, `COc1ccc2[nH]cc(CCc3nc4ccccc4c(=O)n3-c3ccccc3)c2c1` is higher in melting point: 163 to 165 °C for the first, 220 to 221 °C for the second.

Compared with `C=CCN(CCC12CC3CC(CC(C3)C1)C2)C(=O)NCCCc1ccncc1`, `CCN(CC)CCCC1CCN(CCNC(=O)N2c3ccccc3C(=O)Nc3cccnc32)CC1` is higher in melting point: 99 to 102 °C for the first, 165 to 166 °C for the second.

First: Cc1nc2ncc(C(=O)NCc3ccc(Cl)cc3)c(O)c2cc1Br
Second: Cc1nc(N2CCN(Cc3ccncc3)C2=O)sc1C(=O)NCc1cccnc1
The melting point of the first is higher: 269 to 270 °C for the first, 233 to 235 °C for the second.

Compared with `COc1cc(-c2nc(N3CCOCC3)c3c(C)c(C#N)sc3n2)cc(OC)c1OC`, `COc1ccc(C(=O)N2CCN(c3ccc(N)c(C=CC(=O)O)c3)CC2)cc1OC` is lower in melting point: > 250 °C for the first, 168 to 170 °C for the second.

Compared with `CC(=O)c1ccc2c(NCc3ccc(NC(=O)c4ccc(F)cc4)cc3)nc(N(C)C)nc2c1`, `CSc1cc2c(cc1C(F)(F)F)N(C(=O)Nc1ccc(C(=O)Nc3cccnc3)cc1)CC2` is higher in melting point: 195 °C for the first, > 200 °C for the second.

First: Cc1cc(N)c(I)c(C)n1
Second: CCOC(=O)c1c(C)nc2c(ncn2C)c1Cl
The melting point of the first is higher: 103 to 110 °C for the first, 56 to 58 °C for the second.

First: CC1(C)C=C(N2CCNCC2=O)c2cnccc2O1
Second: NC(=O)c1cnn2c1NCC=C2c1ccccc1
The melting point of the first is lower: 109 to 110 °C for the first, 149 to 152 °C for the second.

First: O=C(Cn1c(-c2ccc(C(F)(F)F)cc2)nc2cccnc21)NCc1ccccc1
Second: CCCSc1ncc(CO)n1Cc1ccc(-c2ccccc2C(=O)O)cc1
The melting point of the first is higher: 224 to 225 °C for the first, 194 to 195 °C for the second.

First: CC1(CCO)c2ccccc2-c2ccccc21
Second: CC(C)CCC1(c2ccccc2)CC(O)=C(Sc2ccccc2C(=O)O)C(=O)O1 (stereo not drawn)
The melting point of the first is lower: 84 to 85 °C for the first, 99 to 101 °C for the second.

Compared with `C[C@@H](n1cnc2cc(-c3ccc([N+](=O)[O-])cc3)sc2c1=O)[C@](O)(Cn1cncn1)c1ccc(F)cc1F`, `CCOC(Cn1cncn1)(c1ccc(F)cc1F)C(F)(F)S(=O)(=O)CCO` (stereo not drawn) is lower in melting point: 272 to 273 °C for the first, 150 to 153 °C for the second.

Compared with `O=c1nc(-c2ccccn2)sc2ccc(Br)cc12`, `Cc1ccnc(Nc2nc(-c3c[nH]nc3C(O)c3ccccc3)cs2)n1` (stereo not drawn) is lower in melting point: 253 to 254 °C for the first, 250 °C for the second.

Compared with `CCOC(=O)c1cnn(-c2ccccc2Oc2ccc(C)cc2O)c1`, `CCOC(=O)c1ccc(COc2cccc3occc23)cc1` is lower in melting point: 118 to 119 °C for the first, 70 to 72 °C for the second.

First: CC12CCC(O)CC1CCC1C2CCC2(C)C(C=NNC(=N)N)CCC12O (stereo not drawn)
Second: CC(=O)OCCOCCN1CCC(CNC(=O)[C@@H]2CCCN2S(=O)(=O)c2ccc(Cl)c(COc3cccc4c(-n5cncn5)cc(C)nc34)c2Cl)CC1
The melting point of the first is higher: 163 to 165 °C for the first, 86 °C for the second.

First: O=C(O)C1CCC(c2ccc(Cl)cc2)n2c(=O)n(CCS)c(=O)n21 (stereo not drawn)
Second: O=S(=O)(CCO)CCC(c1cc(F)ccc1F)S(=O)(=O)c1ccc(Cl)cc1 (stereo not drawn)
The melting point of the first is higher: 189 to 190 °C for the first, 111 to 113 °C for the second.

Compared with `CCSc1cc(C)nc(SCC)c1NC(=O)CSc1nc2cccc(S(C)(=O)=O)c2o1`, `CS(=O)(=O)NCCCCn1c(CCO)nc2c(N)nc3cccnc3c21` is higher in melting point: 159 to 162 °C for the first, 194 to 195 °C for the second.

First: O=C1c2ccc([N+](=O)[O-])cc2CC1Br (stereo not drawn)
Second: CC(=O)Nc1cc2c(cc1[N+](=O)[O-])[C@@H](O)[C@H](Br)C(C)(C)O2 (relative stereo)
The melting point of the first is lower: 88.5 to 90.5 °C for the first, 205 to 206 °C for the second.

First: CC(C)(C)OC(=O)Nc1ccc2ccc(C#N)cc2c1Br
Second: CC(C)(O)C(=O)Nc1ccc(S(=O)(=O)c2ccccc2)cc1F
The melting point of the first is lower: 139 to 141 °C for the first, 156 °C for the second.

First: O=C(Nc1ccc(-n2nc(C(F)(F)F)cc2C2CC2)nc1)c1cccc(F)c1F
Second: CS(=O)(=O)c1ccc(-c2cnn(CC(F)(F)F)c(=O)c2NC2CCC2)cc1
The melting point of the first is lower: 151 to 156 °C for the first, 169 to 172 °C for the second.

First: CCOCn1cc(C(C)C)c(=O)[nH]c1=O
Second: CCn1c(COC(N)=O)nc(C(C)C)c1Sc1cc(C#N)cc(C#N)c1
The melting point of the first is lower: 78.4 °C for the first, 174 to 175 °C for the second.

First: COc1ccc(Cl)cc1N1CCN(CCCNC(=O)c2c(-c3ccccc3)noc2C)CC1
Second: CN1CCN(c2cccc3ccc(C(=O)c4ccccc4)cc23)CC1
The melting point of the first is higher: 139 to 142 °C for the first, 124 °C for the second.

Compared with `COC(=O)[C@@H](C)N[C@@H](CC(C)(C)C)C(=O)O`, `O=C(O)C(Cc1n[nH]c2ccccc12)NC(=O)C(CS)C(F)(F)F` (stereo not drawn) is higher in melting point: 120 to 124 °C for the first, 218 to 220 °C for the second.

Compared with `CC(=O)NCc1nc2c(N)nc3cccnc3c2n1CC(C)(C)O`, `CCOC(=O)C1=CC(C)C2=c3c1cccc3=C1N=NC=C12` (stereo not drawn) is lower in melting point: 198 to 200 °C for the first, 107 to 109 °C for the second.

First: O=C(O)c1ccc(NCc2cc(Cl)c(Cl)s2)cc1
Second: CS(=O)(=O)c1cc(C(=O)O)c(Cl)cc1Oc1ccccc1
The melting point of the first is higher: 225 to 227 °C for the first, 200 °C for the second.

First: ClCOc1ccc(-c2ccc(Cl)cc2)cc1
Second: O=[N+]([O-])c1c(Cl)cccc1CS(=O)(=O)c1ccccc1
The melting point of the first is lower: 68 to 70 °C for the first, 141 to 142 °C for the second.

First: O=C(NNc1ccc(NC(=S)Nc2ccccc2)cc1)c1ccccc1
Second: Cc1ccccc1NC(=O)Nc1ccc(C(=O)N2Cc3cccn3Cc3ccccc32)cc1
The melting point of the first is lower: 149 to 151 °C for the first, 155 to 158 °C for the second.

First: O=C(O)c1ccc(C=CC=CC(=O)c2ccccc2)cc1
Second: O=C(O)CC1(c2ccccc2)CCCC1C(=O)O (stereo not drawn)
The melting point of the first is higher: 210 to 214 °C for the first, 205 to 208 °C for the second.

Compared with `C=C1C(O)C(CO)OC1n1cc(CC)c(N)nc1=O` (stereo not drawn), `CCOC(=O)c1nc2n(c(=O)c1O)CCOC2` is lower in melting point: 194 to 196 °C for the first, 172 to 174 °C for the second.

First: CCOC(=O)C1=C(C)NC(c2csc(C)n2)=NC1c1cccc(O)c1 (stereo not drawn)
Second: CN1Cc2ccccc2C(=O)c2cc(CC(=O)O)cc(Cl)c21
The melting point of the first is higher: 175 to 178 °C for the first, 168 to 170 °C for the second.

First: O=C1N(c2ccc(Br)cc2)C(Cl)(Cl)C2CCCCC12Cl (stereo not drawn)
Second: CC(C)c1sc(C#N)c2c1C(=O)CC(C)(C)C2
The melting point of the first is higher: 148 to 150 °C for the first, 59 to 60 °C for the second.

First: COC(=O)c1c([N+](=O)[O-])cccc1S(=O)(=O)N(C)CCO
Second: CCC(CC)C(=O)Nc1ccc2ncnc(NC=C(C(=O)OC)C(=O)OC)c2c1
The melting point of the first is lower: 98 to 101 °C for the first, 221 to 225 °C for the second.

First: CCOCc1cc(C(C)(C)C)cc(COCC)c1SSc1c(COCC)cc(C(C)(C)C)cc1COCC
Second: CC(C)(CO)CCCCC(CCCCC(C)(C)CO)C(C)(C)O
The melting point of the first is lower: 62 to 63 °C for the first, 72 to 74 °C for the second.

Compared with `CN1CCSC1=NC(=S)Nc1ccccc1`, `Cc1ccc(N)cc1Nc1cc(-c2cncnc2)ccn1` is higher in melting point: 169 to 170 °C for the first, 179 to 180 °C for the second.
